Assay results reported in patent US5369111A, “Modulator agent and use thereof” (University of Vermont, priority 1992, dated 1994).

What was measured:
RCC-2 cells = assay: Inhibition of population growth (cytotoxicity), rat colon adenocarcinoma RCC-2; type: cell-based; conditions: Rattus norvegicus; RCC-2, 72 h
From the text: (§1) The analogs were examined in a panel of tumor cell lines of both intrinsic and acquired drug resistance, as described in Table 1. The rat colon adenocarcinoma cell lines RCC-2 and RCC-5 (ref. 13) were maintained in Ham's F12 medium supplemented with 5% heat-inactivated, fetal bovine serum (Sterile Systems. Hyclone, Logan, Utah). The two rat colon cancer cell lines differ in their degree of cellular differentiation; whereas the RCC-2 cell line is undifferentiated, the RCC-5 cell line is highly mucinous. The human epidermoid carcinoma cell line KB-3-1 and its MDR variant KB-Vl, selected by VBL treatment (ref. 14; courtesy of M. Gottesman. National Cancer Institute), was maintained in DMEM medium supplemented with 10%, heat-inactivated, fetal bovine serum. The murine sarcoma cell line […] and its MDR strains A3 and A10 selected by ADM treatment (ref. 15; courtesy of T. Tritton, Dept. Pharmacology, Univ. Vermont). were maintained in DMEM medium supplemented with 10% heat-inactivated, horse serum (Hazelton Biolog. Lenexa, Kans.). Stock cultures were subcultured twice weekly upon reaching the late exponential phase of population growth: population doubling times were 18-24 h. Antibiotics were not used in stock or experimental cultures. The MDR cell strains were grown in drug-free media for 48 h prior to experimental use.
(§2) Mid-exponential cultures were used for all assays. The RCC-2 and RCC-5 cell lines were seeded into 24-well plates at 2×10^4 cells/well and allowed to attach to the substratum for 16-18 h prior to treatment. The S180 cell lines were seeded into culture tubes at 1×10^5 cells/ml and treated immediately. Cytotoxicity was determined by quantitation of population growth after 72 h incubation by electronic particle counter (Coulter Electronics, Hialeah, Fla.). The human tumor cell lines were used in a clonogenic assay for cytotoxicity. Cells were seeded at 300 cells/dish, incubated overnight and then treated. Colonies were scored 7-11 days later. In all assays of analog modulation of drug sensitivity, the analog was added minutes prior to the addition of cytotoxic drug.

RCC-5 cells = assay: Inhibition of population growth (cytotoxicity), rat colon adenocarcinoma RCC-5; type: cell-based; conditions: Rattus norvegicus; RCC-5, 72 h
From the text: as §1, §2

S180 cells, parental = assay: Inhibition of population growth (cytotoxicity), S180 sarcoma, parental; type: cell-based, mouse; conditions: Mus musculus; for IC70: S-180, 72 h, parental S180; for IC50: S-180
From the text: as §1, §2

KB-3-1 cells = assay: Clonogenic assay for cytotoxicity, KB-3-1 parental; type: cell-based; conditions: Homo sapiens
From the text: as §1, §2

S180/A3 cells = assay: Inhibition of population growth (cytotoxicity), MDR strain S180/A3; type: cell-based, mouse
From the text: as §1, §2

S180/A10 cells = assay: Inhibition of population growth (cytotoxicity), MDR strain S180/A10; type: cell-based, mouse; conditions: 4320 min
From the text: as §1, §2

KB-V1 cells = assay: Clonogenic assay for cytotoxicity, MDR variant KB-V1; type: cell-based, human; conditions: for Relative resistance: IC50 in KB-V1 divided by IC50 of parental, Table I
From the text: as §1, §2
FIG. 10 represents the potency of the analog C-20'-deoxy deethyl vincovaline as a modulator of the drug sensitivity of various cell lines: the parental S180 cell line: the two rat colon cancer cell lines, RCC-2 and RCC-5; and the human epidermoid carcinoma cell line KB-3-1 and its MDR cell strain KB-V1, which expresses very high levels of drug resistance (200-500 fold). The enhancement of sensitivity was calculated as the sensitivity index =IC50 of the drug alone divided by the IC50 of the drug+analog. The drugs examined were ADM (o), VBL (Δ), and VCR (.quadrature.). The cytotoxicity of drug and analog treatments in the KB cell lines were measured by cloning efficiencies. The arrows denote the non-toxic concentration limit of the analog in each cell line.

P388 R cells = assay: Viability (MTT test) of P388 R cells; type: cell-based, mouse; conditions: for resistance of P388 R cells to cytotoxic activity of the drug: FIGS. 12 to 14
From the text: The sensitization of C-20'-deoxy C-20'-deethyl vincovaline (D-DEV) has been tested on sensitive and resistants P388 cell lines originating from mouse lympnoma.
The resistance to anticancerous drug has been induced on DBA2 mouses bearing P388 cells ascites and maintained by treatment with adryamycin.
This study has been carried out at least in triplicate.

[1] = A3, IC50 resistant / IC50 parental, Table II, 4320 min
[2] = IC50 in S180/A3 divided by IC50 of parental, Table I
[3] = A10, IC50 resistant / IC50 parental, Table II
[4] = IC50 in S180/A10 divided by IC50 of parental, Table I

Row | Compound | IC50 (RCC-2 cells) [µM] | IC50 (RCC-5 cells) [µM] | IC70 (S180 cells, parental) [µM] | IC50 (S180 cells, parental; S180, parental, Table II) [µM] | IC50 (S180 cells, parental; S180 parental, 72 h, Table I) [µM] | IC50 (KB-3-1 cells) [µM] | Relative resistance (S180/A3 cells; [1]) | Relative resistance (S180/A3 cells; [2]) | Relative resistance (S180/A10 cells; [3]) | Relative resistance (S180/A10 cells; [4]) | resistance of KB-V1 to the drug (KB-V1 cells) [fold] | Relative resistance (KB-V1 cells) | adriamycin cytotoxicity in P388 R cells (P388 R cells; 0.17 to 4.31 μM, 37° C., 24 and 48 hours) | resistance of P388 R cells to cytotoxic activity of the drug (P388 R cells) | vinblastine cytotoxicity towards P388 R cells (P388 R cells; 0.00055 to 0.11 μM, 24 hours) | vincristine cytotoxicity towards P388 R cells (P388 R cells; 0.1 nM to 0.054 μM, 24 hours)
1 | COc1cccc2c1C(=O)c1c(O)c3c(c(O)c1C2=O)C[C@@](O)(C(=O)CO)C[C@@H]3O[C@H]1C[C@H](N)[C@H](O)[C@H](C)O1 [ADM, adriamycin] | 0.01 | 0.05 | 0.2 | 0.1 | 0.1 | 0.015 | 15 | 15 | 90 | 90 | ≥ 200 | 500 | lack of adriamycin cytotoxicity | resistance of P388 R cells to cytotoxic activity | – | –
2 | CC[C@]1(O)C[C@@H]2CN(CCc3c([nH]c4ccccc34)[C@@](C(=O)OC)(c3cc4c(cc3OC)N(C)[C@H]3[C@@](O)(C(=O)OC)[C@H](OC(C)=O)[C@]5(CC)C=CCN6CC[C@]43[C@@H]65)C2)C1 [VBL, vinblastine] | 0.003 | 0.008 | 0.015 | 0.008 | 0.008 | 0.001 | 3 | 3 | 15 | 15 | ≥ 200 | 200 | – | resistance of P388 R cells to cytotoxic activity | lack of vinblastine cytotoxicity | –
3 | CC[C@]1(O)C[C@H]2CN(CCc3c([nH]c4ccccc34)[C@@](C(=O)OC)(c3cc4c(cc3OC)N(C=O)[C@H]3[C@@](O)(C(=O)OC)[C@H](OC(C)=O)[C@]5(CC)C=CCN6CC[C@]43[C@@H]65)C2)C1 [VCR, vincristine] | 0.005 | 0.015 | 0.045 | 0.03 | 0.03 | 0.002 | 10 | 7 | 20 | 17 | ≥ 200 | 400 | – | resistance of P388 R cells to cytotoxic activity | – | lack of vincristine cytotoxicity
